In the Biogen ADME set (Fang et al. 2023):
In brackets after ≈: the same amount, converted by molar mass.

Settings: for aqueous solubility: pH 6.8

intrinsic clearance, human liver microsomes [mL/min/kg] | intrinsic clearance, rat liver microsomes [mL/min/kg] | aqueous solubility [µg/mL] | MDR1-MDCK efflux ratio | fraction unbound, human plasma | fraction unbound, rat plasma | SMILES
9.64 | 192 | 47.4 (≈ 147 µM) | 3.67 | – | – | CS(=O)(=O)CCNC(=O)N1CC2(CCCC2)c2ccccc21
47.2 | 687 | – | – | – | – | CC(C)(C)OC(=O)N1CCCN1C(=O)c1cc2cc(Cl)ccc2[nH]1
≤ 4.74 | 25.7 | 34.6 (≈ 120 µM) | 3.33 | – | – | COc1cc(F)ccc1-c1ncccc1NC(=O)C(C)C
370 | 944 | 44.4 (≈ 86 µM) | 1.48 | – | – | Cc1cc(=O)n(C)c2cc(N3C(=O)CC[C@H](NS(=O)(=O)CC(C)C)[C@H]3c3ccc(Cl)cc3)ccc12
12.7 | – | – | 0.764 | 1 | – | NC1CCCC(C(=O)Nc2ccc3[nH]ncc3c2)C1 (stereo not drawn)
≤ 4.74 | ≤ 10.7 | 74.3 (≈ 277 µM) | 2.93 | – | – | Cc1ccc(-c2noc3nc(C)cc(C(=O)O)c23)cc1
187 | 3610 | 36 (≈ 111 µM) | 0.421 | – | – | Cc1ccc(-c2nc(C(=O)N3CCc4ccccc4C3)cs2)o1
– | – | 0.44 (≈ 1.07 µM) | 1.68 | – | – | CS(=O)(=O)N1CCc2cc(C(=O)NCCOc3ccc4ccccc4c3)ccc21
10.1 | 33.5 | 35 (≈ 139 µM) | 3.96 | – | – | c1cnc(N2CC(c3nc4ccccc4[nH]3)C2)nc1
– | – | 44.7 (≈ 184 µM) | – | – | – | Cc1ccccc1N(CC(=O)O)S(C)(=O)=O
34.8 | 231 | – | – | – | – | CC(=O)Nc1sc2c(c1-c1nc3ccccc3s1)CCN(C(C)C)C2
9.49 | 108 | 90.4 (≈ 173 µM) | 39.1 | – | – | COc1cccc(OC)c1-c1cc(C(=O)N[C@@H](CC(C)C)C(=O)O)nn1-c1ccnc2cc(Cl)ccc12
21.8 | 444 | 2.41 (≈ 5.66 µM) | 5.81 | – | – | CCOc1ccc(C(=O)Nc2cc(C(=O)OC)ccc2N2CCN(C(C)=O)CC2)cc1
14 | 34.4 | 26 (≈ 128 µM) | 0.809 | – | – | C#CCNC(=O)c1ccc2c(c1)OCO2
122 | 2620 | – | – | – | – | CC(C)(C)c1csc(Cn2ccnc2-c2ccccn2)n1
18.3 | 390 | – | 0.488 | – | – | CCOC1CCN(c2ccnc(C(=O)NCc3ccccc3)c2)CC1

intrinsic clearance, human liver microsomes [mL/min/kg] | intrinsic clearance, rat liver microsomes [mL/min/kg] | aqueous solubility [µg/mL] | MDR1-MDCK efflux ratio | fraction unbound, human plasma | fraction unbound, rat plasma | SMILES
≤ 4.74 | 342 | – | – | – | – | CCCN(C(=O)c1ccccc1N)C(C)C
≤ 4.74 | 70.4 | 53 (≈ 228 µM) | 0.627 | – | – | CON(C)C(=O)Cc1c(C)[nH]c2ccccc12
≤ 4.74 | 19.2 | – | – | – | – | Cc1ccc(NC(=O)c2ccn(C(C)C)n2)cc1N1C(=O)CCC1=O
– | – | 0.85 (≈ 2.23 µM) | 4.26 | – | – | O=C1N=C(N2CCN(c3ccccc3)CC2)S/C1=C\c1ccc(O)cc1O
56.6 | 180 | – | 79.6 | – | – | Cn1cnnc1-c1cccc(NS(=O)(=O)c2ccc3c(c2)OCCCO3)c1
≤ 4.74 | 58.1 | – | 5.32 | – | – | Cc1nc(CN2CCC(CNC(=O)COc3ccccc3Cl)CC2)c[nH]1
– | – | – | 2.39 | – | – | CC[C@@H]1CN(c2ccc(C(=O)Nc3cn4cc(C)nc4cn3)c(F)c2)CCN1
5.25 | 66.1 | 39 (≈ 107 µM) | 8.39 | – | – | O=C1CN(C(=O)c2cccc(Oc3cccc(C(F)(F)F)c3)c2)CCN1
15 | 120 | – | 4.29 | – | – | Fc1c(CN2CCC(c3nnc4ccccn34)CC2)cccc1OC1CC1
5.3 | 16.1 | – | 0.273 | – | – | CN(C)C1(CNC(=O)Cn2ccc(=O)cc2)CCCCC1
29.6 | 101 | 50 (≈ 158 µM) | 6.4 | – | – | CN(C)C(=O)OCCN1CCC(c2c[nH]c3ncccc23)CC1
≤ 4.74 | ≤ 10.7 | 26.9 (≈ 129 µM) | – | – | – | O=C(O)c1cc(Cl)cc2cccnc12
92.1 | 445 | – | 83.8 | – | – | Cc1nn(C(C)C)c(C)c1S(=O)(=O)NCC1CCN(C(=O)C2CC2)CC1
≤ 4.74 | 20.7 | – | 1.19 | – | – | CC(C)(C)OC(=O)c1ccc(-n2[nH]cc(-n3ccnn3)c2=O)nc1
≤ 4.74 | ≤ 10.7 | 25.3 (≈ 97.9 µM) | 1.32 | – | – | C#CCOc1ccc(C(=O)NN2CCCC2=O)cc1
15.5 | 137 | 51.8 (≈ 165 µM) | – | – | – | COc1cc(CN(C)C(=O)Nc2cccc(C)c2C)ccc1O

More lines, now with the values behind:

SMILES | intrinsic clearance, human liver microsomes [mL/min/kg] | intrinsic clearance, rat liver microsomes [mL/min/kg] | aqueous solubility [µg/mL] | MDR1-MDCK efflux ratio | fraction unbound, human plasma | fraction unbound, rat plasma
O=c1[nH]c2ccccc2n1C1CCN(Cc2nnc(-c3cc4c(s3)CCCC4)o2)CC1 | 51.8 | 1090 | 2.45 (≈ 5.63 µM) | – | – | –
CCOc1c2c(c(OCC)c3ccccc13)C(=O)N(c1ccc(CC(=O)NS(=O)(=O)c3ccccc3)cc1)C2 | ≤ 4.74 | 17.3 | – | 2.9 | – | –
N#Cc1ccccc1-c1ccc(-c2nccn2-c2cccnc2)o1 | 87.9 | 719 | 29.7 (≈ 95.2 µM) | 1.48 | – | –
Cc1ncsc1CNc1nnc(-c2ccncc2)o1 | 8.9 | 61.5 | – | 3.75 | – | –
O=C(NCc1cccc(F)c1)c1[nH]nnc1-c1ccccc1 | ≤ 4.74 | 17.4 | 20.9 (≈ 70.7 µM) | 1.37 | – | –
CCCCCCNc1ncnc2[nH]ccc12 | 70.9 | 574 | 18.6 (≈ 85.1 µM) | 0.498 | – | –
CCN(CC)C(=O)N1CCC(C(=O)O)CC1 | ≤ 4.74 | ≤ 10.7 | 60.2 (≈ 264 µM) | 4.41 | – | –
Cc1ccc(=O)n(CCOc2cc(F)cc(Br)c2)n1 | 140 | 901 | – | 0.596 | – | –
Brc1cnc2ccccc2c1 | – | – | 0.925 (≈ 4.45 µM) | – | – | –
CC1(C)[C@@H]2C[C@H]1[C@@]1(O)[C@@H](C2)Oc2c(ccc(O)c2C(=O)NCCc2ccccn2)[C@@H]1O | 555 | 910 | – | – | – | –
O=C(Nc1ccc2c(c1)OCCCO2)c1cnn(Cc2ccccc2)c1 | 6.05 | 492 | 16.5 (≈ 47.2 µM) | 0.64 | – | –
Cc1cccc2ncn(CCc3ncc[nH]3)c(=O)c12 | ≤ 4.74 | 2240 | – | 6.44 | – | –
CC(C)Cc1sc(N)nc1-c1ccc(P(=O)(O)O)o1 | ≤ 4.74 | ≤ 10.7 | 69.3 (≈ 229 µM) | 0.425 | – | –
Cc1cc(N(C)C)nc(-n2ccnc2)n1 | 39.7 | 83.1 | 28.5 (≈ 140 µM) | 0.704 | – | –
COc1ccc(-c2nn3c(-c4ccco4)nnc3c3ccccc23)cc1 | – | – | 0.18 (≈ 0.526 µM) | 0.526 | – | –
O=C(Nn1cnc2ccccc21)c1c2c(nc3ccccc13)CCC2 | ≤ 4.74 | ≤ 10.7 | 56.7 (≈ 173 µM) | 43.2 | – | –
CC(C)(C(=O)NCc1ccccn1)c1ccccc1 | ≤ 4.74 | 138 | 77.6 (≈ 305 µM) | 0.736 | – | –
CC1(COc2ccc3c(c2)ncn3-c2ccc3cccc(OS(=O)(=O)C(F)(F)F)c3n2)COC1 | – | – | 0.4 (≈ 0.811 µM) | – | – | –
O=c1n(CCn2ccnc2)nnn1-c1cccs1 | ≤ 4.74 | 55.6 | – | 0.738 | – | –
CC(C)C(=O)Nc1ncc(-c2ccccc2)s1 | – | – | 0.55 (≈ 2.23 µM) | 0.393 | – | –
Cn1cc(-c2ccc3nnc(C(F)(F)c4ccc5ncccc5c4)n3n2)cn1 | ≤ 4.74 | 59.2 | 43 (≈ 114 µM) | 9.46 | – | –
O=C(Nc1ccc(S(=O)(=O)Nc2ccnn2-c2ccccc2)cc1)c1ccco1 | 8.1 | 102 | 63.4 (≈ 155 µM) | 48.8 | – | –
Cc1cccc(-c2nc(C34CCC(C(N)=O)(CC3)CC4)[nH]c2-c2ccc3c(c2)OCO3)n1 | – | – | – | – | 0.105 | 0.0162
COc1ccc(CCCNc2nnc(C)o2)cc1 | ≤ 4.74 | 151 | 25.4 (≈ 103 µM) | – | – | –
CCCCNC(=O)c1cccc2ncccc12 | ≤ 4.74 | 28 | 29.3 (≈ 128 µM) | 0.631 | – | –
Oc1cccc(/C=C/c2nc3ccccc3o2)c1 | – | – | 0.7 (≈ 2.95 µM) | 0.192 | – | –
N#Cc1cccc(-c2ccc(=O)n3c2[C@@H]2C[C@@H](CN(Cc4ccc(F)cc4)C2)C3)c1 | 218 | 1470 | 32.4 (≈ 81.2 µM) | 6.11 | – | –
